Measured values as given in ChEMBL document CHEMBL5331122, “Structure-Activity Relationship Study of Antimicrobial Peptide PE2 Delivered Novel Linear Derivatives with Potential of Eradicating Biofilms and Low Incidence of Drug Resistance” (J Med Chem, 2023).
The source made the active and inactive calls. The rule behind the calls is not given here. Where a SMILES comes first, the peptide text is derived from it. Bridges are numbered along the chain shown (N, C = ends). [ ]: non-standard residue; d: D form. The star is where a group is joined. Heptanoyl(6-Me) = CC(C)CCCCC(=O)*; dDab = NCC[C@@H](N)C(=O)O; Dab = NCC[C@H](N)C(=O)O

Key:
[1] = tested on: Escherichia coli; assay: Antibacterial activity against Escherichia coli ATCC 25922 in presence of 10% mouse serum measured for 6 hrs; format: functional, organism-based
[2] = tested on: Staphylococcus aureus; assay: Antibacterial activity against Staphylococcus aureus ATCC 25923 in presence of 10% mouse serum measured for 6 hrs; format: functional, organism-based
[3] = tested on: Escherichia coli; assay: Inhibition of biofilm formation in Escherichia coli ATCC 25922 assessed as inhibition of biofilm formation incubated for 24 hrs by crystal violet staining based analysis; format: functional, organism-based
[4] = tested on: Escherichia coli; assay: Inhibition of biofilm formation in Escherichia coli ATCC 25922 assessed as inhibition of biofilm formation at 1/4 times MIC incubated for 24 hrs by crystal violet staining based analysis; format: functional, organism-based
[5] = tested on: Escherichia coli; assay: Inhibition of biofilm formation in Escherichia coli ATCC 25922 assessed as inhibition of biofilm formation at 1/2 times MIC incubated for 24 hrs by crystal violet staining based analysis; format: functional, organism-based
[6] = tested on: Escherichia coli; assay: Inhibition of biofilm formation in Escherichia coli ATCC 25922 assessed as inhibition of biofilm formation at 1 to 2 times MIC incubated for 24 hrs by crystal violet staining based analysis; format: functional, organism-based
[7] = tested on: Staphylococcus aureus; assay: Inhibition of biofilm formation in Staphylococcus aureus ATCC 25923 assessed as inhibition of biofilm formation at 1/4 times MIC incubated for 24 hrs by crystal violet staining based analysis; format: functional, organism-based
[8] = tested on: Staphylococcus aureus; assay: Inhibition of biofilm formation in Staphylococcus aureus ATCC 25923 assessed as inhibition of biofilm formation at 1/2 times MIC incubated for 24 hrs by crystal violet staining based analysis; format: functional, organism-based
[9] = tested on: Staphylococcus aureus; assay: Inhibition of biofilm formation in Staphylococcus aureus ATCC 25923 assessed as inhibition of biofilm formation at 1 times MIC incubated for 24 hrs by crystal violet staining based analysis; format: functional, organism-based
[10] = tested on: Staphylococcus aureus; assay: Antibiofilm activity against Staphylococcus aureus ATCC 25923 assessed as biofilm eradication at 1 times MIC incubated for 24 hrs; format: functional, organism-based
[11] = tested on: Staphylococcus aureus; assay: Antibiofilm activity against Staphylococcus aureus ATCC 25923 assessed as biofilm eradication at 4 times MIC incubated for 24 hrs; format: functional, organism-based
[12] = tested on: Staphylococcus aureus; assay: Antibiofilm activity against Staphylococcus aureus ATCC 25923 assessed as biofilm eradication at 8 times MIC incubated for 24 hrs; format: functional, organism-based
[13] = tested on: Staphylococcus aureus; assay: Induction of drug resistance against Staphylococcus aureus ATCC 25923 measured upto 15 passages by sequential passaging method; format: functional
[14] = tested on: Escherichia coli; assay: Additive antibacterial activity against Escherichia coli ATCC 25922 assessed as bacterial growth inhibition incubated for 18 hrs in presence of gentamycin by checkerboard assay; format: functional, organism-based
[15] = tested on: Escherichia coli; assay: Additive antibacterial activity against Escherichia coli ATCC 25922 assessed as bacterial growth inhibition incubated for 18 hrs in presence of rifampicin by checkerboard assay; format: functional, organism-based
[16] = tested on: Staphylococcus aureus; assay: Additive antibacterial activity against Staphylococcus aureus ATCC 25923 assessed as bacterial growth inhibition incubated for 18 hrs in presence of gentamycin by checkerboard assay; format: functional, organism-based
[17] = tested on: Staphylococcus aureus; assay: Additive antibacterial activity against Staphylococcus aureus ATCC 25923 assessed as bacterial growth inhibition incubated for 18 hrs in presence of rifampicin by checkerboard assay; format: functional, organism-based
[18] = tested on: Escherichia coli; assay: Synergistic antibacterial activity against gentamycin-resistant Escherichia coli ATCC 25922 incubated for 18 hrs by checkerboard assay; format: functional, organism-based
[19] = tested on: Escherichia coli; assay: Synergistic antibacterial activity against rifampicin-resistant Escherichia coli ATCC 25922 incubated for 18 hrs by checkerboard assay; format: functional, organism-based
[20] = tested on: Staphylococcus aureus; assay: Synergistic antibacterial activity against Staphylococcus aureus ATCC 25923 incubated for 18 hrs in presence of gentamycin by checkerboard assay; format: functional, organism-based
[21] = tested on: Staphylococcus aureus; assay: Synergistic antibacterial activity against Staphylococcus aureus ATCC 25923 incubated for 18 hrs in presence of rifampicin by checkerboard assay; format: functional, organism-based
[22] = tested on: Escherichia coli; assay: Bactericidal activity against Escherichia coli ATCC 25922 assessed as inhibition of bacterial growth incubated upto 360 mins by time-kill assay; format: functional, organism-based
[23] = tested on: Escherichia coli; assay: Bactericidal activity against Escherichia coli ATCC 25922 assessed as inhibition of bacterial growth at 0.5 to 2 times MIC by time-kill assay; format: functional, organism-based; conditions: time <= 360.0 min, TDE = time-dependent effect
[24] = tested on: Escherichia coli; assay: Bactericidal activity against Escherichia coli ATCC 25922 assessed as inhibition of bacterial growth at 0.5 to 2 times MIC measured at 90 mins by time-kill assay; format: functional, organism-based
[25] = tested on: Escherichia coli; assay: Bactericidal activity against Escherichia coli ATCC 25922 assessed as inhibition of bacterial growth at 2 times MIC measured upto 360 mins by time-kill assay; format: functional, organism-based
[26] = tested on: Staphylococcus aureus; assay: Bactericidal activity against Staphylococcus aureus ATCC 25923 assessed as inhibition of bacterial growth at 0.5 to 2 times MIC by time-kill assay; format: functional, organism-based; conditions: time <= 360.0 min, TDE = time-dependent effect
[27] = tested on: Staphylococcus aureus; assay: Bactericidal activity against Staphylococcus aureus ATCC 25923 assessed as inhibition of bacterial growth incubated upto 360 mins by time-kill assay; format: functional, organism-based
[28] = tested on: Escherichia coli; assay: Bactericidal activity against Escherichia coli ATCC 25922 assessed as inhibition of bacterial growth at 1/2 times MIC measured at 180 mins by time-kill assay; format: functional, organism-based
[29] = tested on: Escherichia coli; assay: Bactericidal activity against Escherichia coli ATCC 25922 assessed as inhibition of bacterial growth at 1 times MIC measured at 120 mins by time-kill assay; format: functional, organism-based
[30] = tested on: Staphylococcus aureus; assay: Bactericidal activity against Staphylococcus aureus ATCC 25923 assessed as inhibition of bacterial growth at 1/2 times MIC measured upto 360 mins by time-kill assay; format: functional, organism-based
[31] = tested on: Staphylococcus aureus; assay: Bactericidal activity against Staphylococcus aureus ATCC 25923 assessed as inhibition of bacterial growth at 1 times MIC measured upto 360 mins by time-kill assay; format: functional, organism-based
[32] = tested on: Staphylococcus aureus; assay: Bactericidal activity against Staphylococcus aureus ATCC 25923 assessed as inhibition of bacterial growth at 2 times MIC measured upto 360 mins by time-kill assay; format: functional, organism-based
[33] = tested on: Staphylococcus aureus; assay: Bactericidal activity against Staphylococcus aureus ATCC 25923 assessed as inhibition of bacterial growth at 2 times MIC measured at 120 mins by time-kill assay; format: functional, organism-based
[34] = tested on: Escherichia coli; assay: Antimicrobial activity against Escherichia coli ATCC 25922 assessed as reduction in microbial growth measured for 18 hrs in presence of […] microg/ml LPS; format: functional, organism-based
[35] = tested on: Escherichia coli; assay: Antimicrobial activity against Escherichia coli ATCC 25922 assessed as reduction in microbial growth measured for 18 hrs in presence of 512 microg/ml LPS; format: functional, organism-based
[36] = tested on: Cell membrane; assay: Induction of outer membrane permeabilization in Escherichia coli ATCC 25922 assessed as increase in fluorescence intensity at 1 to 4 times MIC measured for 12 hrs by NPN uptake assay; format: subcellular
[37] = tested on: Cell membrane; assay: Induction of outer membrane permeabilization in Escherichia coli ATCC 25922 assessed as increase in fluorescence intensity at 2 times MIC measured for 12 hrs by NPN uptake assay; format: subcellular
[38] = tested on: Cell membrane; assay: Induction of outer membrane permeabilization in Escherichia coli ATCC 25922 assessed as increase in fluorescence intensity at 4 times MIC measured for 12 hrs by NPN uptake assay; format: subcellular
[39] = tested on: Cell membrane; assay: Induction of inner membrane permeabilization in Escherichia coli ML-35 ATCC 43837 assessed as increase in fluorescence intensity at 1 to 4 times MIC incubated upto 150 mins by ONPG staining based analysis; format: subcellular
[40] = tested on: Cell membrane; assay: Induction of cell membrane damage in Escherichia coli ATCC 25922 at 2 times MIC after 0.5 to 2 hrs by propidium iodide staining based flow cytometer assay; format: subcellular; conditions: time 0.5-2 hrs
[41] = tested on: Cell membrane; assay: Induction of cell membrane damage in Staphylococcus aureus ATCC 25923 at 2 times MIC after 0.5 to 2 hrs by propidium iodide staining based flow cytometer assay; format: subcellular; conditions: time 0.5-2 hrs
[42] = tested on: Cell membrane; assay: Induction of cell membrane damage in Staphylococcus aureus ATCC 25923 at 2 times MIC measured at 30 mins by propidium iodide staining based flow cytometer assay; format: subcellular
[43] = tested on: Escherichia coli; assay: Induction of membrane morphological changes in Escherichia coli ATCC 25922 at 4 times MIC measured at 0.5 to 2 hrs by SEM analysis; format: functional, organism-based; conditions: time 0.5-2 hrs
[44] = tested on: Staphylococcus aureus; assay: Induction of membrane morphological changes in Staphylococcus aureus ATCC 25923 at 4 times MIC measured at 0.5 to 2 hrs by SEM analysis; format: functional, organism-based; conditions: time 0.5-2 hrs
[45] = tested on: Staphylococcus aureus; assay: Induction of membrane morphological changes in Staphylococcus aureus ATCC 25923 assessed as appearance of broken bacterial cells at 4 times MIC measured at 0.5 to 2 hrs by SEM analysis; format: functional, organism-based; conditions: time 0.5-2 hrs
[46] = tested on: Staphylococcus aureus; assay: Induction of membrane morphological changes in Staphylococcus aureus ATCC 25923 assessed as appearance of blistered bacterial cells at 4 times MIC measured at 0.5 to 2 hrs by SEM analysis; format: functional, organism-based; conditions: time 0.5-2 hrs
[47] = tested on: Staphylococcus aureus; assay: Induction of membrane morphological changes in Staphylococcus aureus ATCC 25923 assessed as appearance of adherent bacterial cells at 4 times MIC measured at 0.5 to 2 hrs by SEM analysis; format: functional, organism-based; conditions: time 0.5-2 hrs
[48] = tested on: Klebsiella pneumoniae; assay: Antibacterial activity against Klebsiella pneumoniae ATCC 700603 infected in BALB/c mouse pneumonia model at 5 to 10 mg/kg, ip measured at 4 to 12 hrs; format: functional, organism-based; conditions: dose 5-10 mg/kg, time 4-12 hrs
[49] = tested on: Klebsiella pneumoniae; assay: Antibacterial activity against Klebsiella pneumoniae ATCC 700603 infected in BALB/c mouse pneumonia model assessed as reduction in lung bacterial load at 5 to 10 mg/kg, ip measured at 4 to 12 hrs; format: functional, organism-based; conditions: dose 5-10 mg/kg, time 4-12 hrs
[50] = tested on: Erythrocyte; assay: Hemolytic activity in mouse red blood cell assessed as hemolysis incubated for 1 hr; format: toxicity, cell-based; conditions: dose 4-256 µg/ml
[51] = Acute toxicity in Kunming mouse assessed as survival rate at 20 mg/kg, ip measured for 7 days; format: organism-based; conditions: in vivo, 168 h, time 7 day
[52] = Acute toxicity in Kunming mouse assessed as survival rate at 20 to 31.7 mg/kg, ip measured at 2 hrs; format: organism-based; conditions: in vivo, dose 20-31.7 mg/kg
[53] = Acute toxicity in Kunming mouse assessed as survival rate at 31.7 mg/kg, ip measured after 2 hrs; format: organism-based; conditions: in vivo
[54] = Acute toxicity in ip dosed Kunming mouse assessed as lethal dose measured upto 7 days; format: organism-based; conditions: Kunming, in vivo, time < 7 day

SMILES: CC(C)CCCCC(=O)N[C@@H](CCN)C(=O)N[C@H](C(=O)N[C@@H](CCN)C(=O)N[C@H]1CCNC(=O)[C@H]([C@@H](C)O)NC(=O)[C@H](CCN)NC(=O)[C@H](CCN)NC(=O)[C@H](CC(C)C)NC(=O)[C@@H](Cc2ccccc2)NC(=O)[C@@H](CCN)NC1=O)[C@@H](C)O ({Heptanoyl(6-Me)}-[Dab]T[Dab][Dab][dDab][dF]L[Dab][Dab]T; lactam 4-C)
- Activity [1]: Active
- Activity [2]: Active
- inhibition [3]: Dose-Dependent Effect
- inhibition [4]: Active
- inhibition [5]: inactive
- inhibition [6]: Active
- inhibition [7]: Active
- inhibition [8]: Active
- inhibition [9]: inactive
- Activity [10]: inactive
- Activity [11]: Active
- Activity [12]: Active
- Activity [13]: Active
- Activity [14]: Active
- Activity [15]: Active
- Activity [16]: Active
- Activity [17]: Active
- Activity [18]: Active
- Activity [19]: Active
- Activity [20]: Active
- Activity [21]: Active
- Activity [22]: Dose-Dependent Effect
- Activity [23]: Tde
- Activity [24]: Active
- Activity [25]: Active
- Activity [26]: Tde
- Activity [27]: Dose-Dependent Effect
- Activity [28]: Active
- Activity [29]: Active
- Activity [30]: inactive
- Activity [31]: inactive
- Activity [32]: Active
- Activity [33]: Active
- Activity [34]: Active
- Activity [35]: inactive
- Activity [36]: Active
- Activity [37]: Active
- Activity [38]: Active
- Activity [39]: Active
- Activity [40]: Active
- Activity [41]: Active
- Activity [42]: inactive
- Activity [43]: Active
- Activity [44]: Active
- Activity [45]: Active
- Activity [46]: Active
- Activity [47]: Active
- Activity [48]: Active
- Activity [49]: Active

SMILES: CC(C)CCCCC(=O)N[C@@H](CCN)C(=O)N[C@H](C(=O)N[C@@H](CCN)C(=O)N[C@H]1CCNC(=O)[C@H]([C@@H](C)O)NC(=O)[C@H](CCN)NC(=O)[C@H](CCN)NC(=O)[C@H](CC(C)C)NC(=O)[C@@H](Cc2ccccc2)NC(=O)[C@H](CCN)NC1=O)[C@@H](C)O ({Heptanoyl(6-Me)}-[Dab]T[Dab][Dab][Dab][dF]L[Dab][Dab]T; lactam 4-C)
- HC10 [50]: 512 µg/mL
- Activity [51]: Non-Toxic
- Activity [52]: Toxic
- Activity [53]: Toxic
- LD50 at 168 h [54]: 26.7 mg/kg
